Reference: US5936120A, “Deoxygossylic compounds” (University of New Mexico, priority 1997, dated 1999)
“Also recorded” adds a separate entry of the source.

Key:
[1] = system: HT46c (HeLaT4+) cells; test: Cytotoxicity in the anti-HIV assay: detectable changes in cell morphology or loss of monolayer adherence to the culture plate; type: cell-based; details: for cytotoxicity: in words
Procedure: (§1) 1,1'-bisdeoxygossypol (BDG), 1,1'-bisdeoxygossylic acid (BDGA), 8-deoxyhemigossypol (DHG) and 8-deoxyhemigossylic acid (DHGA) were synthesized and tested for their ability to inhibit the replication of HIV in vitro.
(§2) After treatment of the wells with DEAE-dextran, stock virus was added at a concentration that produces 100 -200 foci/well on day 3 in positive control wells. Test compounds were added, and plates incubated for 3 days at 37° C., 5% CO2. Monolayers were fixed with methanol and wells analyzed with a focal immunoassay (FIA). The primary reagent used in the FIA was a polyclonal antibody preparation of sera from AIDS patients. The secondary reagent was a goat anti-human IgG antibody tagged with horseradish peroxidase. The substrate was 3-amino-9-ethylcarbazole in sodium acetate buffer with hydrogen peroxide. Each compound was tested at concentrations of 0.01, 0.1, 1.0, 5.0 and 20 μM. GIL was tested as a standard for comparison.

[2] = system: H9/HIV-IIIB in HT46c cells; test: Anti-HIV assay in vitro: inhibition of HIV replication, focal immunoassay (reduction in foci); type: cell-based, HIV-1; details: for anti-HIV activity: in words, tested at 0.01, 0.1, 1.0, 5.0 and 20 μM; for reduction in foci at 5 μM: GIL compared with BDGA
Procedure: 1,1'-bisdeoxygossypol (BDG), 1,1'-bisdeoxygossylic acid (BDGA), 8-deoxyhemigossypol (DHG) and 8-deoxyhemigossylic acid (DHGA) were synthesized and tested for their ability to inhibit the replication of HIV in vitro. The EC50 for BDGA was <1 μM and its threshold cytotoxicity was approximately 20 μM. […] Like BDGA, the Ec50 for GIL was <1 μM. […] BDG, on the other hand, was ineffective at 1 μM and destroyed >80% of the cell monolayer at 5 μM.
as §2, with “The anti-HIV assay used was based on a published procedure (J.Virol. 62:3779-3788, 1988) using HT46c (HeLaT4+) cells as host cells for the H9/HIV-III8 strain of the HIV-1 virus. The cells were seeded into 6-well plates, 5×10^4 cells/well, in RPMI 1640 with 10% FBS and allowed to attach overnight. After” for “After”

[3] = Cytotoxicity in the anti-HIV assay: detectable changes in cell morphology or loss of monolayer adherence to the culture plate; type: cell-based; details: human, ht46c cells; below threshold = no detectable changes in cell morphology or loss of monolayer adherence
Procedure: as §1, §2

[4] = system: HIV; details: previously found, in vitro; cited from earlier work
[5] = previously shown in similar assays (Pharmacol.Res.); cited from earlier work

| SMILES | cytotoxicity [1] | anti-HIV activity [2] | toxicity at 5.0 μM [1] | reduction in foci at 5 μM [2] | other results |
| --- | --- | --- | --- | --- | --- |
| Cc1cc2c(C(C)C)c(O)c(O)c(C=O)c2cc1-c1cc2c(C=O)c(O)c(O)c(C(C)C)c2cc1C [BDG, 6,6',7,7'-Tetrahydroxy-3,3'-dimethyl-5,5'-bis(1-methylethyl)[2,2'-binaphthalene]-8,8'-dicarboxaldehyde] | much more cytotoxic than BDGA | less effective against HIV | – | – | destruction of the cell monolayer at 5 μM ([1]; 5 μM): > 80%; anti-HIV activity at 1 μM ([2]; 1 μM): ineffective |
| Cc1cc2c(C(C)C)c(O)c(O)c(C(=O)O)c2cc1-c1cc2c(C(=O)O)c(O)c(O)c(C(C)C)c2cc1C [BDGA, 6,6',7,7'-Tetrahydroxy-3,3'-dimethyl-5,5'-bis(1-methylethyl)[2,2'-binaphthalene]-8,8'-dicarboxylic Acid] | – | approximately as effective as GIL | No toxicity was noted | same reduction in foci | monolayer destruction at 20 μM ([1]; 20 μM): Some signs of monolayer destruction |
| Cc1ccc2c(C=O)c(O)c(O)c(C(C)C)c2c1 [DHG, 2,3-dihydroxy-6-methyl-4-(1-methylethyl)-1-naphthaldehyde] | more cytotoxic | some anti-HIV activity; also recorded: less active | – | – | MCC [3]: 54 µM |
| Cc1ccc2c(C(=O)O)c(O)c(O)c(C(C)C)c2c1 [DHGA, 2,3-dihydroxy-6-methyl-4-(1-methylethyl)-1-naphthoic Acid] | very low cytotoxicity | ineffective against HIV | – | – | effect on cell morphology at 20 μM ([1]; even at 20 μM): no observable effect on viral replication or cell morphology; effect on viral replication at 20 μM ([2]; even at 20 μM): no observable effect on viral replication |
| Cc1cc2c(C(C)C)c(O)c(O)c3c2c(c1-c1c(C)cc2c(C(C)C)c(O)c(O)c4c2c1OC4=N)OC3=N [GIL, gossylic iminolactone] | – | – | No toxicity was noted | same reduction in foci | anti-HIV activity relative to gossypol [4]: more active; also recorded: more effective than gossypol; cytotoxicity relative to gossypol [5]: less cytotoxic than gossypol |
